Data taken from ChEMBL document CHEMBL1201862, “PubChem BioAssay data set” (2004).
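Growth conditions: 96-well plates. Treatment: test compound, 48 hours, 5 concentrations. Analysis: linear interpolation between bracketing concentrations; unreached endpoints set to highest concentration. The concentration for 50% growth inhibition is given as GI50.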 Activity calls are given as the source filed them. No stated cut-off is given here; in the data, active = GI50 up to about 1.1 µM and inactive = higher.

What was measured:
Assay in all cases: growth of human tumour cells (NCI), 48 h
A498 = test system: A498
U-251 = test system: U-251
IGROV-1 = test system: IGROV-1
MCF7 = test system: MCF7
OVCAR-5 = test system: OVCAR-5
SNB-19 = test system: SNB-19
UACC-257 = test system: UACC-257
SF-295 = test system: SF-295
OVCAR-8 = test system: OVCAR-8
OVCAR-4 = test system: OVCAR-4
HT-29 = test system: HT-29
NCI-H522 = test system: NCI-H522
HCT-116 = test system: HCT-116
NCI/ADR-RES = test system: NCI/ADR-RES
RPMI-8226 = test system: RPMI-8226
NCI-H460 = test system: NCI-H460
786-0 = test system: 786-0
CAKI-1 = test system: CAKI-1
SK-MEL-5 = test system: SK-MEL-5
HCC 2998 = test system: HCC 2998

Measured: GI50

Cc1cccc(CNc2[nH]cnc3nncc2-3)c1
inactive: A498 40.6 µM | U-251 > 100 µM | IGROV-1 64.4 µM | MCF7 > 100 µM | OVCAR-5 40.4 µM | SNB-19 > 100 µM | UACC-257 76.6 µM | SF-295 > 100 µM | OVCAR-8 49.1 µM | OVCAR-4 87.7 µM | HT-29 > 100 µM | NCI-H522 56.5 µM | HCT-116 > 100 µM | NCI/ADR-RES 90.2 µM | RPMI-8226 44.3 µM | NCI-H460 > 100 µM | 786-0 > 100 µM | CAKI-1 80.7 µM | SK-MEL-5 64.4 µM

Cn1c(=O)c2nc(COCc3nc4c(=O)n(C)c(=O)n(C)c4[nH]3)[nH]c2n(C)c1=O
inactive: A498 > 100 µM | U-251 > 100 µM | IGROV-1 > 100 µM | MCF7 > 100 µM | OVCAR-5 > 100 µM | SNB-19 > 100 µM | UACC-257 > 100 µM | SF-295 > 100 µM | OVCAR-8 > 100 µM | OVCAR-4 > 100 µM | HT-29 > 100 µM | NCI-H522 > 100 µM | HCT-116 > 100 µM | NCI/ADR-RES > 100 µM | RPMI-8226 > 100 µM | NCI-H460 > 100 µM | 786-0 > 100 µM | CAKI-1 > 100 µM | SK-MEL-5 > 100 µM

c1ccc(CSCCC(SCc2ccccc2)SCc2ccccc2)cc1
inactive: A498 > 10 µM | U-251 > 10 µM | IGROV-1 > 10 µM | MCF7 > 10 µM | SNB-19 > 10 µM | UACC-257 > 10 µM | SF-295 > 10 µM | OVCAR-8 > 10 µM | OVCAR-4 > 10 µM | HT-29 > 10 µM | NCI-H522 > 10 µM | HCC 2998 > 10 µM | HCT-116 > 10 µM | NCI/ADR-RES > 10 µM | RPMI-8226 > 10 µM | NCI-H460 > 10 µM | 786-0 > 10 µM | CAKI-1 > 10 µM | SK-MEL-5 > 10 µM

O=C1CC(Br)c2c(Br)sc(Br)c21 (stereo unspecified)
inactive: A498 91.4 µM | U-251 17.3 µM | IGROV-1 16.6 µM | MCF7 16.5 µM | OVCAR-5 17.9 µM | SNB-19 27.7 µM | UACC-257 15.7 µM | SF-295 27.7 µM | OVCAR-8 16.1 µM | OVCAR-4 17.3 µM | HT-29 16.7 µM | NCI-H522 12.1 µM | HCT-116 13.6 µM | NCI/ADR-RES 34.5 µM | RPMI-8226 8.04 µM | NCI-H460 17.3 µM | 786-0 16.3 µM | CAKI-1 22 µM | SK-MEL-5 19.8 µM

COc1ccc2c(c1OC)OC[C@@H](C1=CC(=O)C=C(O)C1=O)C2
inactive: A498 15.3 µM | U-251 11.7 µM | IGROV-1 11.7 µM | MCF7 9.91 µM | OVCAR-5 18 µM | SNB-19 16 µM | UACC-257 13 µM | SF-295 16.1 µM | OVCAR-8 19.1 µM | OVCAR-4 5.53 µM | HT-29 17.7 µM | NCI-H522 2.7 µM | HCC 2998 17.2 µM | HCT-116 4.7 µM | NCI/ADR-RES 24.5 µM | RPMI-8226 1.91 µM | NCI-H460 11.8 µM | 786-0 5.38 µM | SK-MEL-5 12.5 µM

CCn1c(=O)c2c3ccc(O)cc3[nH]c2c2ccc(O)cc21
inactive: A498 > 100 µM | U-251 56.8 µM | IGROV-1 > 100 µM | MCF7 50.7 µM | OVCAR-5 > 100 µM | SNB-19 > 100 µM | UACC-257 > 100 µM | SF-295 > 100 µM | OVCAR-8 > 100 µM | OVCAR-4 > 100 µM | HT-29 > 100 µM | NCI-H522 93.3 µM | HCC 2998 > 100 µM | HCT-116 45.4 µM | NCI/ADR-RES > 100 µM | CAKI-1 > 100 µM | SK-MEL-5 30.9 µM

COc1ccc(C2c3c(n(C)c(=O)n(C)c3=O)OC(N(C)C)(N(C)C)C2(F)F)cc1 (stereo unspecified)
inactive: A498 > 100 µM | U-251 > 100 µM | MCF7 > 100 µM | OVCAR-5 > 100 µM | SNB-19 > 100 µM | UACC-257 > 100 µM | SF-295 > 100 µM | OVCAR-4 > 100 µM | HCC 2998 > 100 µM | HCT-116 > 100 µM | NCI/ADR-RES > 100 µM | RPMI-8226 > 100 µM | NCI-H460 > 100 µM | 786-0 > 100 µM | CAKI-1 > 100 µM | SK-MEL-5 > 100 µM

CC1C2CC(C(S(=O)(=O)N3CCOCC3)/C2=N\O)C1(C)C (stereo unspecified)
inactive: A498 > 100 µM | IGROV-1 > 100 µM | MCF7 > 100 µM | SNB-19 > 100 µM | UACC-257 > 100 µM | SF-295 > 100 µM | OVCAR-8 > 100 µM | OVCAR-4 > 100 µM | HT-29 > 100 µM | NCI-H522 > 100 µM | HCC 2998 > 100 µM | HCT-116 > 100 µM | NCI/ADR-RES > 100 µM | RPMI-8226 > 100 µM | NCI-H460 > 100 µM | 786-0 > 100 µM | CAKI-1 > 100 µM | SK-MEL-5 > 100 µM

O=C(O)C1(Cc2ccc3c(c2)CCC3)Cc2ccccc2C1
inactive: A498 36.1 µM | U-251 65.8 µM | IGROV-1 > 100 µM | MCF7 > 100 µM | OVCAR-5 > 100 µM | SNB-19 > 100 µM | UACC-257 > 100 µM | SF-295 38.9 µM | OVCAR-8 63.7 µM | OVCAR-4 23.3 µM | HT-29 88.3 µM | NCI-H522 42.3 µM | HCC 2998 41.9 µM | HCT-116 50.4 µM | NCI/ADR-RES 78.2 µM | RPMI-8226 71.1 µM | NCI-H460 52.1 µM | 786-0 > 100 µM | SK-MEL-5 > 100 µM

CCOc1ccc(NC(=O)/C(=N\NC(C)(C)C)C2C(=O)Nc3ccccc3[S+]2[O-])cc1 (stereo unspecified)
inactive: A498 > 100 µM | U-251 > 100 µM | IGROV-1 > 100 µM | MCF7 > 100 µM | OVCAR-5 > 100 µM | SNB-19 > 100 µM | UACC-257 > 100 µM | SF-295 > 100 µM | OVCAR-8 > 100 µM | OVCAR-4 > 100 µM | HT-29 > 100 µM | NCI-H522 > 100 µM | HCC 2998 > 100 µM | HCT-116 > 100 µM | NCI/ADR-RES > 100 µM | RPMI-8226 20.7 µM | NCI-H460 > 100 µM | 786-0 > 100 µM | SK-MEL-5 > 100 µM

O/N=C1/CC2(N3CCOCC3)C3CC/C(=N\O)C2CC1(Cc1ccccc1)C3 (stereo unspecified)
inactive: A498 > 100 µM | U-251 > 100 µM | IGROV-1 > 100 µM | MCF7 66.4 µM | OVCAR-5 > 100 µM | SNB-19 > 100 µM | UACC-257 66.8 µM | SF-295 > 100 µM | OVCAR-8 > 100 µM | OVCAR-4 > 100 µM | HT-29 95.9 µM | NCI-H522 > 100 µM | HCC 2998 > 100 µM | HCT-116 44.5 µM | NCI/ADR-RES > 100 µM | NCI-H460 > 100 µM | 786-0 > 100 µM | CAKI-1 > 100 µM | SK-MEL-5 44.4 µM

N#CC(c1ccccc1)N(CCOCCOCCN(C(=O)c1ccccc1)C(C#N)c1ccccc1)C(=O)c1ccccc1 (stereo unspecified)
inactive: A498 > 100 µM | U-251 > 100 µM | IGROV-1 > 100 µM | MCF7 > 100 µM | OVCAR-5 > 100 µM | SNB-19 > 100 µM | UACC-257 47.1 µM | SF-295 > 100 µM | OVCAR-8 > 100 µM | OVCAR-4 81.7 µM | HT-29 > 100 µM | HCC 2998 94.2 µM | HCT-116 46.6 µM | NCI/ADR-RES 28.2 µM | NCI-H460 81.3 µM | 786-0 > 100 µM | CAKI-1 > 100 µM | SK-MEL-5 34.9 µM

O=c1c(C(c2cccc(C(c3c(O)oc4ccccc4c3=O)c3c(O)oc4ccccc4c3=O)c2)c2c(O)oc3ccccc3c2=O)c(O)oc2ccccc12
inactive: A498 > 100 µM | U-251 26.3 µM | IGROV-1 34 µM | MCF7 13.6 µM | OVCAR-5 > 100 µM | UACC-257 69 µM | SF-295 41.5 µM | OVCAR-8 21.1 µM | HT-29 36.9 µM | NCI-H522 14.5 µM | HCC 2998 15.6 µM | HCT-116 25.1 µM | NCI/ADR-RES > 100 µM | RPMI-8226 33.2 µM | NCI-H460 75.2 µM | 786-0 17.7 µM | CAKI-1 16.9 µM | SK-MEL-5 13.2 µM

O=C1CC(c2ccc(Cl)cc2)Oc2ccccc21 (stereo unspecified)
inactive: A498 26.2 µM | U-251 31.8 µM | IGROV-1 14.6 µM | MCF7 3.83 µM | SNB-19 26.8 µM | UACC-257 40.3 µM | SF-295 24.4 µM | OVCAR-8 37.2 µM | OVCAR-4 43.4 µM | HT-29 8.71 µM | HCC 2998 25.6 µM | HCT-116 37.3 µM | NCI/ADR-RES 16.1 µM | RPMI-8226 3.96 µM | NCI-H460 19.8 µM | 786-0 16.3 µM | CAKI-1 26.3 µM | SK-MEL-5 14 µM

Nc1ncc(Cc2ccc3c(c2)OCO3)c(N)n1
inactive: A498 > 100 µM | U-251 > 100 µM | IGROV-1 > 100 µM | MCF7 > 100 µM | OVCAR-5 > 100 µM | SNB-19 > 100 µM | UACC-257 > 100 µM | SF-295 > 100 µM | OVCAR-8 > 100 µM | OVCAR-4 > 100 µM | HT-29 > 100 µM | HCC 2998 5.83 µM | HCT-116 > 100 µM | NCI/ADR-RES > 100 µM | RPMI-8226 > 100 µM | NCI-H460 > 100 µM | 786-0 > 100 µM | CAKI-1 > 100 µM | SK-MEL-5 > 100 µM
